In paper PMC8318231, “Rate-of-Kill (RoK) assays to triage large compound sets for Chagas disease drug discovery: Application to GSK Chagas Box” (PLoS Neglected Tropical Diseases, 2021):

Columns and labels:
[1] = tested on: TcCYP51; details: formerly reported; cited from earlier work
[2] = tested on: T. cruzi intracellular amastigotes in H9c2 cells; test: Rate-of-Kill (RoK) high-content imaging assay, amastigotes per cell (AM/CELL) and curve descriptors; type: cell-based, Trypanosoma cruzi; parameters: key to ME_24h / ME_48h / ME_72h: % reduction in parasite burden (cidal response); t50pct_MCC50 / t50pct_Cmax: unit not given here; details: for ME_24h: 24h; for ME_48h: 48h; for ME_72h: 72h; for t50%_Cmax / tlag_Cmax / t50pct_Cmax: at Cmax; for ME_24h (%): maximum effect at 24 h; for ME_24h (%) / ME_48h (%) / ME_72h (%): RoK assay; for ME_48h (%): maximum effect at 48 h; for ME_72h (%): maximum effect at 72 h; for ME 24h (maximum effect at 24 hours, intracellular amastigotes): maximum percentage of parasite burden reduction reached by any concentration
How it was run: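 H9c2 cardiomyocytes infected with T. cruzi trypomastigotes (MOI 8, 18 h), then compounds tested at 5 μM single shot or 11-point 1/3 dilution from 50 μM. DRAQ5-stained nuclei imaged over a time course. Amastigotes per cell normalised to infected cells at 4 h (0%) and non-infected cells (100%).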

| Structure (SMILES) | CYP51 pIC50 [1] | ME_24h ([2]; figure 5) | ME_48h ([2]; figure 5) | ME_72h ([2]; figure 5) | MCCE ([2]; RoK curve descriptor) | AM/CELL NORM ([2]; Time 4, sheet figure 4 A) | AM/CELL NORM ([2]; Time 24, sheet figure 4 A) | AM/CELL NORM ([2]; Time 48, sheet figure 4 A) | AM/CELL NORM ([2]; Time 72, sheet figure 4 A) | tlag_Cmax [2] | t50pct_Cmax ([2]; figure 5) | tlag_Cmax ([2]; figure 5) | t50pct_MCC50 ([2]; at MCC50, figure 5) | tlag_MCC50 ([2]; at MCC50, figure 5) | MCC50 ([2]; figure 5) | MCCE ([2]; figure 5) | ME_24h (%) [2] | ME_48h (%) [2] | ME_72h (%) [2] | ME 24h (maximum effect at 24 hours, intracellular amastigotes) [2] | other results |
| --- | --- | --- | --- | --- | --- | --- | --- | --- | --- | --- | --- | --- | --- | --- | --- | --- | --- | --- | --- | --- | --- |
| O=C1CSC(c2cccnc2)N1c1ccc(Cl)cc1Cl (stereo not shown) [TCMDC-143114] | 6.8 | -4.949 | 48.1247 | 74.0117 | 0.6 µM | 4.621 | -4.949 | 48.1247 | 74.0117 | 24.0 h | 72 | 24 | 72 | 24 | 50 µM | 0.6173 | -5.0% | 48.1% | 74.0% | -4.949% | MCC50 ([2]; RoK curve descriptor): 50.0 µM; t50%_Cmax [2]: 72.0 h; t50%_MCC50 ([2]; at MCC50): 72.0 h; tlag_MCC50 ([2]; at MCC50): 24.0 h |
| O=C(C1CCCCC1)N1CCN(c2nnc(-c3ccccc3)c3ccccc23)CC1 [TCMDC-143511] | < 4 | -40.3218 | 29.1145 | 87.9479 | 1.9 µM | -0.05415 | -40.3218 | 2.791 | 87.9479 | 24.0 h | 72 | 24 | 72 | 24 | – | 1.852 | -40.3% | 29.1% | 88.0% | -40.3218% | MCC50 ([2]; RoK curve descriptor): 5.6 µM; t50%_Cmax [2]: 72.0 h; t50%_MCC50 ([2]; at MCC50): 72.0 h; tlag_MCC50 ([2]; at MCC50): 24.0 h; MCC50 ([2]; figure 5, in µM): 5.556 |
| c1ccc(CCNCc2cncc3nc(-c4cnccn4)n(C4CCCCC4)c23)cc1 [TCMDC-143346] | 7 | -174.15 | -60.952 | 17.2662 | 0.2 µM | -7.276 | -174.15 | -60.952 | 6.4629 | 24.0 h | 72 | 24 | 72 | 72 | 50 µM | 0.2058 | -174.2% | -61.0% | 17.3% | -174.15% | – |
| COc1cc(-c2nc(N3CCOCC3)sc2-c2ccnc(NC3CCOCC3)n2)ccc1Cl.O=C(O)C(F)(F)F [TCMDC-143414] | < 4 | -30.3967 | 4.32 | 10.4319 | 0.34 µM | -8.885 | -7.51 | 27.1663 | 39.4258 | 14.0 h | 72 | 14 | 72 | 72 | 50 µM | 0.3429 | -30.4% | 4.3% | 10.4% | -7.51% | – |
| CC(CNS(=O)(=O)c1ccc(OC(F)F)cc1)c1ccc(NC(=O)c2ccncc2)cc1 (stereo not shown) [TCMDC-143535] | 7.3 | -92.8433 | -11.1799 | 45.5869 | 0.2 µM | 3.544 | -92.8433 | -15.4132 | 37.7082 | 24.0 h | 72 | 24 | 72 | 72 | 50 µM | 0.2058 | -92.8% | -11.2% | 45.6% | -92.8433% | – |
| c1ccc2c(CCOc3nccnc3-c3ccncc3)c[nH]c2c1 [TCMDC-143562] | 7.2 | -24.9705 | 30.5632 | 12.8696 | 0.2 µM | -8.107 | -35.3498 | 30.5632 | -2.217 | 24.0 h | 72 | 24 | 72 | 72 | 50 µM | 0.2058 | -25.0% | 30.6% | 12.9% | -24.9705% | – |
| O=C(c1cccc(Cl)c1Cl)N1CCn2c1nc(-c1ccncc1)cc2=O [TCMDC-143409] | 7.2 | -46.4941 | -253.426 | 11.7221 | 0.6 µM | 24.5196 | -46.4941 | -266.503 | -474.938 | 72.0 h | 72 | 72 | 72 | 72 | 50 µM | 0.6173 | -46.5% | -253.4% | 11.7% | -46.4941% | – |
| OCCCNc1nc(Nc2ccncc2)nc2ccccc12 [TCMDC-143476] | < 4 | -15.4195 | -2.754 | -23.113 | 0.6 µM | -9.731 | -26.5514 | -22.3232 | -41.9873 | 24.0 h | 72 | 24 | 72 | 72 | 50 µM | 0.6173 | -15.4% | -2.8% | -23.1% | -15.4195% | – |
| Cc1[nH]c2ccccc2c(=O)c1Cc1c(C)[nH]c2ccccc2c1=O [TCMDC-143490] | < 4 | 37.5404 | 50.8304 | 51.8782 | 0.01 µM | 13.7757 | 37.5404 | 50.8304 | 51.8782 | 4.0 h | 48 | 4 | 48 | 4 | 50 µM | 0.007621 | 37.5% | 50.8% | 51.9% | 37.5404% | MCC50 ([2]; RoK curve descriptor): 50.0 µM; t50%_Cmax [2]: 48.0 h; t50%_MCC50 ([2]; at MCC50): 48.0 h; tlag_MCC50 ([2]; at MCC50): 4.0 h |
| Cc1nccn1C1CCCN(C(=O)c2cc3c(F)cccc3s2)C1 (stereo not shown) [TCMDC-143498] | 4.3 | 32.6582 | 54.1455 | 68.2465 | 1.9 µM | – | – | – | – | 8.0 h | 48 | 8 | 72 | 33.6 | – | 1.852 | 32.7% | 54.2% | 68.3% | 52.5921% | MCC50 ([2]; RoK curve descriptor): 4.6 µM; AM/CELL NORM ([2]; Time 4, figure 4 A): 21.9505; AM/CELL NORM ([2]; Time 24, figure 4 A): 50.5271; AM/CELL NORM ([2]; Time 48, figure 4 A): 69.4926; AM/CELL NORM ([2]; Time 72, figure 4 A): 61.0854; t50%_Cmax [2]: 48.0 h; t50%_MCC50 ([2]; at MCC50): 72.0 h; tlag_MCC50 ([2]; at MCC50): 24.0 h; MCC50 ([2]; figure 5, in µM): 13.7037 |
| O=c1[nH]ccc2ccc(-c3ccncc3)cc12 [TCMDC-143631] | 7.8 | -43.2523 | -170.763 | 18.409 | 0.6 µM | -16.1027 | -43.2523 | -202.655 | 18.409 | 48.0 h | 72 | 48 | 72 | 72 | 50 µM | 0.6173 | -43.3% | -170.8% | 18.4% | -43.2523% | – |
| O=C(Nc1ccc(Br)c(Cl)c1)Nc1ccc2c(c1)OCO2 [TCMDC-143588] | < 4 | 4.143 | 11.8076 | -0.7061 | 5.6 µM | 16.6619 | 4.143 | 11.8076 | -47.3133 | 24.0 h | 72 | 24 | 72 | 72 | 50 µM | 5.556 | 4.1% | 11.8% | -0.7% | 4.143% | – |
